Laboratory results reported in patent US10123995B2, “Factor XIa inhibitors” (MERCK SHARP & DOHME CORP., priority 2015, dated 2018).

What was measured:
[1] = target: purified Human plasma kallikrein (Homo sapiens (Human), UniProt P03952); experiment: Kallikrein Assay; format: biochemical; conditions: table titled Kalikrein inhibition (column head prints hFXIa), substrate Acetyl-K-P-R-AFC, pH 7.4
Procedure: (§1) The effectiveness of a compound of the present invention as an inhibitor of Kallikrein can be determined using a relevant purified serine protease, and an appropriate synthetic substrate. The rate of hydrolysis of the chromogenic or fluorogenic substrate by the relevant serine protease was measured both in the absence and presence of compounds of the present invention. Assays were conducted at room temperature or at 37° C. […] A decrease in the rate of fluorescence change in the presence of inhibitor is indicative of enzyme inhibition. Such methods are known to one skilled in the art. The results of this assay are expressed as the inhibitory constant, Ki.
Kallikrein determinations were made in 50 mM HEPES buffer at pH 7.4 containing 150 mM NaCl, 5 mM CaCl2, and 0.1% PEG 8000 (polyethylene glycol; Fisher Scientific). Determinations were made using purified Human plasma kallikrein at a final concentration of 0.5 nM (Enzyme Research Laboratories) and the synthetic substrate, Acetyl-K-P-R-AFC (Sigma # C6608) at a concentration of […].
Activity assays were performed by diluting a stock solution of substrate at least tenfold to a final concentration ≤0.2 Km into a solution containing enzyme or enzyme equilibrated with inhibitor. Times required to achieve equilibration between enzyme and inhibitor were determined in control experiments. The reactions were performed under linear progress curve conditions and fluorescence increase measured at 405 Ex/510 Em nm. Values were converted to percent inhibition of the control reaction (after subtracting 100% Inhibition value). IC50 was determined by inflection point from a four parameter logistic curve fit. Ki was calculated using the Cheng Prusoff equation, Ki=IC50/(1+([S]/Km)).

[2] = target: purified human Factor XIa (Homo sapiens (Human), UniProt P03951); experiment: Factor XIa Assay; format: biochemical; conditions: Factor XIa inhibition; substrate Z-Gly-Pro-Arg-AFC, pH 7.4; read-out: hFXIa IC50
Sequence of purified human Factor XIa (P03951 388-625): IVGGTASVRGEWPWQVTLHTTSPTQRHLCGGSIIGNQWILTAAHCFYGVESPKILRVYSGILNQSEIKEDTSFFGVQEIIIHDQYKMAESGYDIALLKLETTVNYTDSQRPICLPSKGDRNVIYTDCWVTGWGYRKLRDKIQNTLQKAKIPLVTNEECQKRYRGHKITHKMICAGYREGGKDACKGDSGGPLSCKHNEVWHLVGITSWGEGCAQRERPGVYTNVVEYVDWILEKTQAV
Sequence of purified human Factor XIa (P03951 19-387 partner): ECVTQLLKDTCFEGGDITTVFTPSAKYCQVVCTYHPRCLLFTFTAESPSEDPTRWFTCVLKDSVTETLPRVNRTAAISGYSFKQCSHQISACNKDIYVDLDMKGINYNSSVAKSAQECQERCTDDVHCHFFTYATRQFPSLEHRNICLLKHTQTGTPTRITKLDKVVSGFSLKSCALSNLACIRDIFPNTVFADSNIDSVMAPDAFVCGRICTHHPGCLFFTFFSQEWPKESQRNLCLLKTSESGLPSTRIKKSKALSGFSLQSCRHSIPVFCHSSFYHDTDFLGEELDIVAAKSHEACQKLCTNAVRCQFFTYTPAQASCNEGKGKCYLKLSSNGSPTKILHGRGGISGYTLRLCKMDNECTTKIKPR
Procedure: as §1, with “Coagulation Factor XIa” for “Kallikrein”, “The results of this assay are expressed as the inhibitory constant, Ki.” left out
Factor XIa determinations were made in 50 mM HEPES buffer at pH 7.4 containing 150 mM NaCl, 5 mM CaCl2, and 0.1% PEG 8000 (polyethylene glycol; JT Baker or Fisher Scientific). Determinations were made using purified human Factor XIa at a final concentration of 40 pM (Sekisui Diagnostics) and the synthetic substrate, Z-Gly-Pro-Arg-AFC, TFA salt (Sigma #C0980) at a concentration of 100 μM.
Activity assays were performed by diluting a stock solution of substrate at least tenfold to a final concentration ≤0.1 Km into a solution containing enzyme or enzyme equilibrated with inhibitor. Times required to achieve equilibration between enzyme and inhibitor were determined in control experiments. Initial velocities of product formation in the absence (Vo) or presence of inhibitor (Vi) were measured. Assuming competitive inhibition, and that unity is negligible compared Km/[S], [I]/e, and [I]/e (where [S], [I], and e respectively represent the total concentrations, of substrate, inhibitor and enzyme), the equilibrium constant (Ki) for dissociation of the inhibitor from the enzyme can be obtained from the dependence of Vo/Vi on [I] shown in the following equation. Vo/Vi=1+[I]/Ki

Sequence of purified Human plasma kallikrein (P03952 391-638): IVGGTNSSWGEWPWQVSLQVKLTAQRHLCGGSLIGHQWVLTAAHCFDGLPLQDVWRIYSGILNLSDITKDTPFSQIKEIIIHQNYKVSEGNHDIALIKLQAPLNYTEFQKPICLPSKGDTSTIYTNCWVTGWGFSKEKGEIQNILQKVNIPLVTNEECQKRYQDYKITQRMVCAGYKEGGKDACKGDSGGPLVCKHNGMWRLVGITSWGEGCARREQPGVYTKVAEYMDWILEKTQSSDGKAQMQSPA
Sequence of purified Human plasma kallikrein (P03952 20-390 partner): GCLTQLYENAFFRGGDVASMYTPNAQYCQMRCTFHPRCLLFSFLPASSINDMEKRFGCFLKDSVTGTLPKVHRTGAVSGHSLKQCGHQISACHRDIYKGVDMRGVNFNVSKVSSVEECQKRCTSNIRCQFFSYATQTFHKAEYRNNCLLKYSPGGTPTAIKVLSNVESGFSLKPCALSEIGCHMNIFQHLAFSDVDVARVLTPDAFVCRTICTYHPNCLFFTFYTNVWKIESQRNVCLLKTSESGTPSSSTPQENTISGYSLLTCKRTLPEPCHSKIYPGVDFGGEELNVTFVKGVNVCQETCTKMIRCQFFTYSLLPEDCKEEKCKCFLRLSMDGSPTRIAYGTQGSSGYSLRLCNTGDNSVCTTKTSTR

O=C(O)c1ccc(NC(=O)C2(O)CC(O)c3cc(-c4cc(Cl)ccc4-n4cnnn4)c[n+]([O-])c32)cc1 (single isomer, unassigned) [Example 9, 4-[({3-[5-Chloro-2-(1H-tetrazol-1-yl)phenyl]-5,7-dihydroxy-1-oxido-6,7-dihydro-5H-cyclopenta[b]pyridin-7-yl}carbonyl)amino]benzoic acid]
IC50 [1]: 460 nM
IC50 [2]: 2.9 nM

O=C(O)c1ccc(NC(=O)C2(O)CC(F)c3cc(-c4cc(Cl)ccc4-n4cnnn4)c[n+]([O-])c32)cc1 (single isomer, unassigned) [Example 13, 4-[({3-[5-Chloro-2-(1H-tetrazol-1-yl)phenyl]-5-fluoro-7-hydroxy-1-oxido-6,7-dihydro-5H-cyclopenta[b]pyridin-7-yl}carbonyl)amino]benzoic acid]
IC50 [1]: 202 nM
IC50 [2]: 3.7 nM

O=C(O)c1ccc(NC(=O)C2CC(O)c3cc(-c4cc(Cl)ccc4-n4cnnn4)c[n+]([O-])c32)cc1 (single isomer, unassigned) [Example 7]
IC50 [1]: 1720 nM
IC50 [2]: 8.6 nM
